# Assays:
# [1] = test system: human striated muscle cells innervated with explants of rat embryonic rachidian ganglia and spinal cord; experiment: Nerve-muscle coculture test (muscle fibre contractions); type: cell-based; details: 60 seconds incubation
# Method: The compounds of Examples 1 and 2 were tested on a model of nerve-muscle coculture, which makes it possible to recreate a motor arc by innervating human striated muscle cells with explants of rat embryonic rachidian ganglia and spinal cord.
# Human muscle cells, obtained from samples of striated muscle from healthy donors, are inoculated into wells of cross section 1.8 cm^2 (24-well culture dishes). After culturing for ten days, these cells form a monolayer and fuse. At this stage, explants of embryonic spinal cord from a 13-day-old rat, containing the rachidian ganglia, are placed on the culture.
# The growth of the neurites is visible beyond the spinal cord explant after one day of culture. The first contractions of the muscle fibres are observed after five to six days of coculture, and after three weeks all the muscle fibres in the region of the explants contract.
# The cocultures are used after 21 days, when the muscle fibres are striated and contain mature differentiated neuromuscular junctions.
# A muscle fibre showing regular contractions (at least 60 contractions per minute) is then selected from three different culture wells and the number of contractions is counted over 30 seconds. […] At the end of incubation, the number of contractions is again counted over 30 seconds. […]
# [2] = test system: type L calcium channels, verapamil site; experiment: Binding to type L calcium channels, [3H](-)-D888 displacement; parameters: species or system rat; details: similar test, concentration of 50 μM
# Method: The studies are performed using rat cerebral cortex homogenates (isolated membranes containing at their surface type L calcium channels) according to the method described by Reynolds I. J. et al., 1986, J. Pharmacol. Exp. Ther., 237, p. 731.
# The experimental conditions are as follows:
# D888, which is [^3H] (−)-demethoxyverapamil, serves as a radiolabelled specific ligand, and D600, which is (±)-methoxyverapamil hydrochloride, serves as a reference molecule.
# The specific binding of a ligand (labelled D888) to the receptors (type L calcium channels, verapamil site) is defined as being the difference between the total binding and the non-specific binding determined in the presence of an excess of cold (non-radioactive) ligand. The results are expressed as a percentage of inhibition of the specific binding of the control in the presence of the test compound.
# [3] = test system: human striated muscle cells innervated with explants of rat embryonic rachidian ganglia and spinal cord; details: validation of the model; cited from earlier work
# [4] = in vivo; cited from earlier work
Molecule,% inhibition of contractions ([1]; 10 μM) [%],% inhibition of contractions ([1]; 100 μM) [%],inhibition of the specific binding of the control to the calcium channels [2] [%],inhibition of muscle fibre contractions [3],anti-wrinkle activity [4]
1-(2-phenylethyl)-4-(3-phenylpropyl)-piperazine [Compound 2],50,100,50,–,–
CN1C(=O)CN=C(c2ccccc2)c2cc(Cl)ccc21 [diazepam],–,–,–,inhibited muscle fibre contractions,anti-wrinkle activity has been demonstrated in vivo

# From US20060246099A1 (L'OREAL, priority 2005, published 2006)
